According to patent US6673749B1, “Use of phyllocladane diterpenoids for plant growth promotion and alleviation of growth retardant allelochemicals, and method therefor” (Council of Scientific and Industrial Research, priority 2002, dated 2004):

How the values were obtained:
Assay type in all cases: in vivo
Hordeum vulgare = experiment: Seed germination and seedling shoot/root growth test in petridishes; details: control = 100%
Procedure, shortened: (§1)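 Ten seeds per 9.0 cm dish on filter paper wetted with 0.1, 0.01 or 0.001 μM compound solution (ethanol or acetone cosolvent, matched in controls), in triplicate. Incubated 9 days at 25.0±1.0 °C, 90% humidity, 4 hr light/day. Germination and shoot and root length expressed relative to control taken as 100%.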

Triticum aestivum = experiment: as above; details: control = 100%
Procedure, shortened: as §1

Vigna radiata = experiment: as above; details: Vigna radiata, control = 100%
Procedure, shortened: as §1

[1] = system: Trigonella foenum-graecum; experiment: as above; details: for Percent (%) germination of seeds in relation to control on 9th day after sowing / Percent (%) root growth of seedlings in relation to control on 9th day after sowing / Percent (%) shoot growth of seedlings in relation to control on 9th day after sowing: Trigonella foenum graecum, control = 100%
Procedure, shortened: as §1

Sesbania cannabina [2] = experiment: Seed germination and seedling growth, comparison with GA3 (Example 4)
Protocol: (§2) 100 ml stalk solutions of 0.1 μM concentration were prepared by dissolving required amounts of various test compounds (depending upon their molecular weights) in minimum amount of ethanol or acetone and adding distilled water. From this stalk solution, 0.01 μM and 0.001 μM concentrations were prepared. Calliterpenone and calliterpenone di acetate was dissolved in 2.0 ml absolute ethanol (Merc), while; calliterpenone monoacetate, isopropylideno calliterpenone and trihydroxy calliterpenone were dissolved in 2.0 ml spectral grade acetone (Ranbaxy). The respective control test solutions of distilled water of each concentration also contained equal amount of absolute ethanol or acetone. For an assay, 10 seeds were placed on Whatman filter paper (moistened with 5.0 ml of test solution in a 9.0 cm diameter petridish (in triplicate). The pteridishes were incubated for 9 days in a germinator, maintained at 25.0±1.0° C. with 90% humidity and 4 hr light/day. At the end of incubation, observations were recorded on the seedlings in terms of germination, shoot and root growth. The data on the length of shoot and root of seedlings and number of seeds germinated in different concentrations of compounds were compared with the control, which was taken as 100%. The data thus obtained were presented in Table-1.
(§3) Effect of calliterpenone and its derivatives on seed germination and seedling growth in Hibiscus sabdariffa and Sesbania cannabina were measured in the similar way as these were measured in Example-1.

Hibiscus sabdariffa [3] = experiment: as above
Protocol: as §2, §3

Sesbania cannabina [4] = experiment: Antagonistic effect with Artemisia annua seed extract on germination and seedling growth; details: A. annua seed extract (0.65 g seeds/100 ml) alone or mixed 1:1 with 0.01 μm compound, control = 100%
Protocol: (§4) On the other hand, it is evident from Exp. 1-4 that phyllocladane diterpenenoids have produced germination and growth promoting activities on various plant species. To find out the combined effect of A. annua extract and phyllocladane diterpenoides on the germination and seedling growth of different plant species, 1:1 ratio of these compounds and A.annua extract were tested in the present experiment. For this, Hibiscus sabdariffa and Sesbania cannabina seeds were germinated in A.annua seed extract and solutions prepared by mixing this extract with 0.01 μm calliterpenone and calliterpenone mono-acetate respectively (Table 7). For the preparation of A.annua extract, 1.3 g seeds were soaked in 100 ml of distilled water for 24 hrs for testing on H. sabdariffa. Since, at this concentration, seeds of this species have shown 69% mortality which may be taken as good indicator. This effect was also recorded in S.cannabina. Since, in this case, seeds were almost half in weight as compared to the seeds of H. sabdariffa, accordingly, 0.65 g A. annua seeds were soaked in 100 ml of distilled water for 24 hrs to produce identical constraints in S. cannabina. For control, seeds were germinated in distilled water and all the observations were compared with it. […] Therefore, calliterpenone and its derivatives can be used to nullify the effects of other growth retardants/allelochemicals in the fields for their reclamation.

Hibiscus sabdariffa [5] = experiment: as above; details: A. annua seed extract (1.3 g seeds/100 ml) alone or mixed 1:1 with 0.01 μm compound, control = 100%
Protocol: as §4

CC(=O)OCC1(O)CC23CCC4C(C)(C)C(=O)CCC4(C)C2CCC1C3 (stereo not shown) [Calliterpenone Monoacetate, calliterpenone monoacetate]
Percent (%) germination of seeds in relation to control on 9th day after sowing (Hordeum vulgare; 0.001 μM): 100% | Percent (%) root growth of seedlings in relation to control on 9th day after sowing (Hordeum vulgare; 0.001 μM): 146% | Percent (%) shoot growth of seedlings in relation to control on 9th day after sowing (Hordeum vulgare; 0.001 μM): 113% | Percent (%) germination of seeds in relation to control on 9th day after sowing (Hordeum vulgare; 0.01 μM): 100% | Percent (%) root growth of seedlings in relation to control on 9th day after sowing (Hordeum vulgare; 0.01 μM): 114% | Percent (%) shoot growth of seedlings in relation to control on 9th day after sowing (Hordeum vulgare; 0.01 μM): 117% | Percent (%) germination of seeds in relation to control on 9th day after sowing (Hordeum vulgare; 0.1 μM): 100% | Percent (%) root growth of seedlings in relation to control on 9th day after sowing (Hordeum vulgare; 0.1 μM): 124% | Percent (%) shoot growth of seedlings in relation to control on 9th day after sowing (Hordeum vulgare; 0.1 μM): 118% | Percent (%) germination of seeds in relation to control on 9th day after sowing (Triticum aestivum; 0.001 μM): 100% | Percent (%) root growth of seedlings in relation to control on 9th day after sowing (Triticum aestivum; 0.001 μM): 145% | Percent (%) shoot growth of seedlings in relation to control on 9th day after sowing (Triticum aestivum; 0.001 μM): 106% | Percent (%) germination of seeds in relation to control on 9th day after sowing (Triticum aestivum; 0.01 μM): 100% | Percent (%) root growth of seedlings in relation to control on 9th day after sowing (Triticum aestivum; 0.01 μM): 102% | Percent (%) shoot growth of seedlings in relation to control on 9th day after sowing (Triticum aestivum; 0.01 μM): 107% | Percent (%) germination of seeds in relation to control on 9th day after sowing (Triticum aestivum; 0.1 μM): 100% | Percent (%) root growth of seedlings in relation to control on 9th day after sowing (Triticum aestivum; 0.1 μM): 88% | Percent (%) shoot growth of seedlings in relation to control on 9th day after sowing (Triticum aestivum; 0.1 μM): 109% | Percent (%) germination of seeds in relation to control on 9th day after sowing (Vigna radiata; 0.001 μM): 100% | Percent (%) root growth of seedlings in relation to control on 9th day after sowing (Vigna radiata; 0.001 μM): 104% | Percent (%) shoot growth of seedlings in relation to control on 9th day after sowing (Vigna radiata; 0.001 μM): 138% | Percent (%) germination of seeds in relation to control on 9th day after sowing (Vigna radiata; 0.01 μM): 150% | Percent (%) root growth of seedlings in relation to control on 9th day after sowing (Vigna radiata; 0.01 μM): 85% | Percent (%) shoot growth of seedlings in relation to control on 9th day after sowing (Vigna radiata; 0.01 μM): 130% | Percent (%) germination of seeds in relation to control on 9th day after sowing (Vigna radiata; 0.1 μM): 200% | Percent (%) root growth of seedlings in relation to control on 9th day after sowing (Vigna radiata; 0.1 μM): 67% | Percent (%) shoot growth of seedlings in relation to control on 9th day after sowing (Vigna radiata; 0.1 μM): 123% | Percent (%) germination of seeds in relation to control on 9th day after sowing ([1]; 0.001 μM): 113% | Percent (%) root growth of seedlings in relation to control on 9th day after sowing ([1]; 0.001 μM): 131% | Percent (%) shoot growth of seedlings in relation to control on 9th day after sowing ([1]; 0.001 μM): 135% | Percent (%) germination of seeds in relation to control on 9th day after sowing ([1]; 0.01 μM): 113% | Percent (%) root growth of seedlings in relation to control on 9th day after sowing ([1]; 0.01 μM): 95% | Percent (%) shoot growth of seedlings in relation to control on 9th day after sowing ([1]; 0.01 μM): 134% | Percent (%) germination of seeds in relation to control on 9th day after sowing ([1]; 0.1 μM): 113% | Percent (%) root growth of seedlings in relation to control on 9th day after sowing ([1]; 0.1 μM): 81% | Percent (%) shoot growth of seedlings in relation to control on 9th day after sowing ([1]; 0.1 μM): 133% | Seed germination as compared to 100% in control ([1]; Trigonella foenum-graceum, concentration not specified): 113% | Root growth as compared to respective control (Sesbania cannabina [2]; 0.001 μM): 114% | Seed Ger. (Sesbania cannabina [2]; 0.001 μM): 3 | Shoot growth as compared to respective control (Sesbania cannabina [2]; 0.001 μM): 109% | Root Growth (mm) 3rd Day (Sesbania cannabina [2]; 0.001 μM): 40.0 mm | Shoot growth 3rd Day (Sesbania cannabina [2]; 0.001 μM): 44.0 | Root Growth (mm) 6th Day (Sesbania cannabina [2]; 0.001 μM): 40.0 mm | Shoot growth 6th Day (Sesbania cannabina [2]; 0.001 μM): 110.0 | Root Growth (mm) 9th Day (Sesbania cannabina [2]; 0.001 μM, 9th day): 57.0 mm | Root growth as compared to GA3 taken as 100% (Sesbania cannabina [2]; 0.001 μM, 9th day): 143% | Shoot growth 9th Day (Sesbania cannabina [2]; 0.001 μM, 9th day): 120 | Seed Ger. (Sesbania cannabina [2]; 0.01 μM): 3 | Root Growth (mm) 3rd Day (Sesbania cannabina [2]; 0.01 μM): 28.3 mm | Shoot growth 3rd Day (Sesbania cannabina [2]; 0.01 μM): 20.0 | Root Growth (mm) 6th Day (Sesbania cannabina [2]; 0.01 μM): 28.4 mm | Shoot growth 6th Day (Sesbania cannabina [2]; 0.01 μM): 57.8 | Root Growth (mm) 9th Day (Sesbania cannabina [2]; 0.01 μM, 9th day): 45.1 mm | Shoot growth 9th Day (Sesbania cannabina [2]; 0.01 μM, 9th day): 78.2 | Seed Ger. (Sesbania cannabina [2]; 0.1 μM): 2 | Root Growth (mm) 3rd Day (Sesbania cannabina [2]; 0.1 μM): 5.5 mm | Shoot growth 3rd Day (Sesbania cannabina [2]; 0.1 μM): 11.0 | Root Growth (mm) 6th Day (Sesbania cannabina [2]; 0.1 μM): 7.5 mm | Shoot growth 6th Day (Sesbania cannabina [2]; 0.1 μM): 50.0 | Root Growth (mm) 9th Day (Sesbania cannabina [2]; 0.1 μM, 9th day): 23.0 mm | Shoot growth 9th Day (Sesbania cannabina [2]; 0.1 μM, 9th day): 66.0 | Germination as compared to GA3 treatments (Sesbania cannabina [2]; concentration not given): 150% | Germination as compared to its control (Sesbania cannabina [2]; concentration not given): 150% | Enhancement in germination (in words) (Hibiscus sabdariffa [3]): did not produce any enhancement in germination | Seed Ger. (Hibiscus sabdariffa [3]; 0.001 μM): 3 | Root Growth (mm) 3rd Day (Hibiscus sabdariffa [3]; 0.001 μM): 16.3 mm | Shoot growth 3rd Day (Hibiscus sabdariffa [3]; 0.001 μM): 28.8 | Root Growth (mm) 6th Day (Hibiscus sabdariffa [3]; 0.001 μM): 19.3 mm | Shoot growth 6th Day (Hibiscus sabdariffa [3]; 0.001 μM): 85.8 | Root Growth (mm) 9th Day (Hibiscus sabdariffa [3]; 0.001 μM): 24.8 mm | Shoot growth 9th Day (Hibiscus sabdariffa [3]; 0.001 μM): 91.6 | Seed Ger. (Hibiscus sabdariffa [3]; 0.01 μM): 2 | Root Growth (mm) 3rd Day (Hibiscus sabdariffa [3]; 0.01 μM): 17.5 mm | Shoot growth 3rd Day (Hibiscus sabdariffa [3]; 0.01 μM): 33.5 | Root Growth (mm) 6th Day (Hibiscus sabdariffa [3]; 0.01 μM): 18.3 mm | Shoot growth 6th Day (Hibiscus sabdariffa [3]; 0.01 μM): 67.5 | Root Growth (mm) 9th Day (Hibiscus sabdariffa [3]; 0.01 μM): 21.3 mm | Shoot growth 9th Day (Hibiscus sabdariffa [3]; 0.01 μM): 75.2 | Seed Ger. (Hibiscus sabdariffa [3]; 0.1 μM): 0 | Percent (%) germination in relation to control on the 9th day after sowing (Sesbania cannabina [4]): completely checked the inhibitory effect | Percent (%) seedling growth, Root, in relation to control on the 9th day after sowing (Sesbania cannabina [4]): 175% | Percent (%) seedling growth, Stem, in relation to control on the 9th day after sowing (Sesbania cannabina [4]): 175% | Percent (%) germination in relation to control on the 9th day after sowing (Hibiscus sabdariffa [5]): completely checked the inhibitory effect | Percent (%) seedling growth, Root, in relation to control on the 9th day after sowing (Hibiscus sabdariffa [5]): 172% | Percent (%) seedling growth, Stem, in relation to control on the 9th day after sowing (Hibiscus sabdariffa [5]): 169%
